Assay results from patent US20100099561A1, “HETEROBICYCLIC ALKYLTHIO-BRIDGED ISOXAZOLINES” (E.I. DU PONT DE NEMOURS AND COMPANY, priority 2008, published 2010).

Legend:
Assay type in all cases: in vivo
corn (Zea mays) [1] = test: Test A postemergence, corn; settings: 0 to 100 scale (0 no effect, 100 complete control)
Source text: (§1) Seeds of barnyardgrass (Echinochloa crus-galli), large crabgrass (Digitaria sanguinalis), giant foxtail (Setaria faberi), morningglory (Ipomoea spp.), pigweed (Amaranthus retroflexus), velvetleaf (Abutilon theophrasti), wheat (Triticum aestivum), and corn (Zea mays) were planted into a blend of loam soil and sand and treated preemergence with a directed soil spray using test chemicals formulated in a non-phytotoxic solvent mixture which included a surfactant. At the same time these species were also treated with postemergence applications of test compounds formulated in the same manner. Plants ranged in height from two to ten cm and were in the one- to two-leaf stage for the postemergence treatment. Treated plants and untreated controls were maintained in a greenhouse for approximately ten days, after which time all treated plants were compared to untreated controls and visually evaluated for injury. Plant response ratings, summarized in Table A, are based on a 0 to 100 scale where 0 is no effect and 100 is complete control. A dash (-) response means no test result.

[2] = tested on: giant foxtail (Setaria faberi); test: Test A postemergence, giant foxtail; settings: 0 to 100 scale (0 no effect, 100 complete control)
Source text: as §1

[3] = tested on: velvetleaf (Abutilon theophrasti); test: Test A postemergence, velvetleaf; settings: 0 to 100 scale (0 no effect, 100 complete control)
Source text: as §1

[4] = tested on: morningglory (Ipomoea spp.); test: Test A postemergence, morningglory; settings: 0 to 100 scale (0 no effect, 100 complete control)
Source text: as §1

[5] = tested on: ducksalad (Heteranthera limosa); test: Test B flooded paddy test, ducksalad; settings: Flood, scale 0 to 100
Source text: (§2) Plant species in the flooded paddy test consisted of rice (Oryza sativa), umbrella sedge (Cyperus difformis), ducksalad (Heteranthera limosa) and barnyardgrass (Echinochloa crus-galli) grown to the 2-leaf stage for testing. At time of treatment, test pots were flooded to 3 cm above the soil surface, treated by application of test compounds directly to the paddy water, and then maintained at that water depth for the duration of the test. Treated plants and controls were maintained in a greenhouse for 13 to 15 days, after which time all species were compared to controls and visually evaluated. Plant response ratings, summarized in Table B, are based on a scale of 0 to 100 where 0 is no effect and 100 is complete control. A dash (-) response means no test result.

rice (Oryza sativa) = test: Test B flooded paddy test, rice; settings: Flood, scale 0 to 100
Source text: as §2

[6] = tested on: large crabgrass (Digitaria sanguinalis); test: Test A postemergence, large crabgrass; settings: 0 to 100 scale (0 no effect, 100 complete control)
Source text: as §1

[7] = tested on: barnyardgrass (Echinochloa crus-galli); test: Test A postemergence, barnyardgrass; settings: 0 to 100 scale (0 no effect, 100 complete control)
Source text: as §1

[8] = tested on: giant foxtail (Setaria faberi); test: Test A preemergence, giant foxtail; settings: 0 to 100 scale (0 no effect, 100 complete control)
Source text: as §1

[9] = tested on: barnyardgrass (Echinochloa crus-galli); test: Test A preemergence, barnyardgrass; settings: 0 to 100 scale (0 no effect, 100 complete control)
Source text: as §1

[10] = tested on: umbrella sedge (Cyperus difformis); test: Test B flooded paddy test, umbrella sedge; settings: Flood, scale 0 to 100
Source text: as §2

[11] = tested on: velvetleaf (Abutilon theophrasti); test: Test A preemergence, velvetleaf; settings: 0 to 100 scale (0 no effect, 100 complete control)
Source text: as §1

corn (Zea mays) [12] = test: Test A preemergence, corn; settings: 0 to 100 scale (0 no effect, 100 complete control)
Source text: as §1

[13] = tested on: wheat (Triticum aestivum); test: Test A postemergence, wheat; settings: 0 to 100 scale (0 no effect, 100 complete control)
Source text: as §1

[14] = tested on: morningglory (Ipomoea spp.); test: Test A preemergence, morningglory; settings: 0 to 100 scale (0 no effect, 100 complete control)
Source text: as §1

[15] = tested on: pigweed (Amaranthus retroflexus); test: Test A preemergence, pigweed; settings: 0 to 100 scale (0 no effect, 100 complete control)
Source text: as §1

[16] = tested on: wheat (Triticum aestivum); test: Test A preemergence, wheat; settings: 0 to 100 scale (0 no effect, 100 complete control)
Source text: as §1

[17] = tested on: large crabgrass (Digitaria sanguinalis); test: Test A preemergence, large crabgrass; settings: 0 to 100 scale (0 no effect, 100 complete control)
Source text: as §1

[18] = tested on: barnyardgrass (Echinochloa crus-galli); test: Test B flooded paddy test, barnyardgrass; settings: Flood
Source text: as §2

[19] = tested on: pigweed (Amaranthus retroflexus); test: Test A postemergence, pigweed; settings: 0 to 100 scale (0 no effect, 100 complete control)
Source text: as §1

[20] = 250 g ai/ha, scale 0 to 100 (0 no effect, 100 complete control)

CC1(C)CC([S+]([O-])Cc2c(C(F)(F)C(F)(F)F)nc3n(c2=O)CCCC3)=NO1 (centres unmarked) [Compound 19]
60: Plant response rating, Morningglory ([14]; 500 g ai/ha)
70: Plant response rating, Barnyardgrass ([7]; 500 g ai/ha)
0: Plant response rating, Corn (corn (Zea mays) [1]; 125 g ai/ha) | Plant response rating, Foxtail, Giant ([2]; 125 g ai/ha) | Plant response rating, Velvetleaf ([3]; 125 g ai/ha) | Plant response rating, Morningglory ([4]; 125 g ai/ha) | Plant response rating, Ducksalad ([5]; 31 g ai/ha) | Plant response rating, Ducksalad ([5]; 62 g ai/ha) | Plant response rating, Ducksalad ([5]; 125 g ai/ha) | Plant response rating, Ducksalad ([5]; 250 g ai/ha) | Plant response rating, Rice (rice (Oryza sativa); 31 g ai/ha) | Plant response rating, Rice (rice (Oryza sativa); 62 g ai/ha) | Plant response rating, Rice (rice (Oryza sativa); 125 g ai/ha) | Plant response rating, Rice (rice (Oryza sativa); 250 g ai/ha) | Plant response rating, Crabgrass, Large ([6]; 125 g ai/ha) | Plant response rating, Foxtail, Giant ([8]; 125 g ai/ha) | Plant response rating, Barnyardgrass ([9]; 125 g ai/ha) | Plant response rating, Sedge, Umbrella ([10]; 31 g ai/ha) | Plant response rating, Sedge, Umbrella ([10]; 62 g ai/ha) | Plant response rating, Sedge, Umbrella ([10]; 125 g ai/ha) | Plant response rating, Sedge, Umbrella ([10]; 250 g ai/ha) | Plant response rating, Velvetleaf ([11]; 125 g ai/ha) | Plant response rating, Velvetleaf ([11]; 500 g ai/ha) | Plant response rating, Wheat ([13]; 125 g ai/ha) | Plant response rating, Morningglory ([14]; 125 g ai/ha) | Plant response rating, Pigweed ([15]; 125 g ai/ha) | Plant response rating, Wheat ([16]; 125 g ai/ha) | Plant response rating, Crabgrass, Large ([17]; 125 g ai/ha) | Plant response rating, Barnyardgrass ([18]; 31 g ai/ha, scale 0 to 100) | Plant response rating, Barnyardgrass ([18]; 62 g ai/ha, scale 0 to 100) | Plant response rating, Barnyardgrass ([18]; 125 g ai/ha, scale 0 to 100) | Plant response rating, Barnyardgrass [18, 20] | Plant response rating, Pigweed ([19]; 125 g ai/ha)
10: Plant response rating, Barnyardgrass ([7]; 125 g ai/ha) | Plant response rating, Pigweed ([19]; 500 g ai/ha)
20: Plant response rating, Velvetleaf ([3]; 500 g ai/ha) | Plant response rating, Morningglory ([4]; 500 g ai/ha) | Plant response rating, Corn (corn (Zea mays) [12]; 500 g ai/ha) | Plant response rating, Wheat ([13]; 500 g ai/ha) | Plant response rating, Pigweed ([15]; 500 g ai/ha) | Plant response rating, Wheat ([16]; 500 g ai/ha)
50: Plant response rating, Foxtail, Giant ([2]; 500 g ai/ha)
30: Plant response rating, Crabgrass, Large ([6]; 500 g ai/ha)
80: Plant response rating, Foxtail, Giant ([8]; 500 g ai/ha) | Plant response rating, Barnyardgrass ([9]; 500 g ai/ha) | Plant response rating, Crabgrass, Large ([17]; 500 g ai/ha)
40: Plant response rating, Corn (corn (Zea mays) [1]; 500 g ai/ha)

Cn1c(=O)c(CS(=O)(=O)C2=NOC(C)(C)C2)nc2ccccc21 [Compound 23]
70: Plant response rating, Crabgrass, Large ([17]; 500 g ai/ha)
10: Plant response rating, Foxtail, Giant ([2]; 125 g ai/ha) | Plant response rating, Pigweed ([15]; 500 g ai/ha) | Plant response rating, Crabgrass, Large ([17]; 125 g ai/ha)
40: Plant response rating, Barnyardgrass ([7]; 125 g ai/ha) | Plant response rating, Barnyardgrass ([9]; 500 g ai/ha)
60: Plant response rating, Foxtail, Giant ([2]; 500 g ai/ha) | Plant response rating, Crabgrass, Large ([6]; 500 g ai/ha) | Plant response rating, Barnyardgrass ([7]; 500 g ai/ha)
0: Plant response rating, Corn (corn (Zea mays) [1]; 125 g ai/ha) | Plant response rating, Corn (corn (Zea mays) [1]; 500 g ai/ha) | Plant response rating, Velvetleaf ([3]; 125 g ai/ha) | Plant response rating, Velvetleaf ([3]; 500 g ai/ha) | Plant response rating, Morningglory ([4]; 125 g ai/ha) | Plant response rating, Morningglory ([4]; 500 g ai/ha) | Plant response rating, Ducksalad ([5]; 62 g ai/ha) | Plant response rating, Ducksalad ([5]; 250 g ai/ha) | Plant response rating, Rice (rice (Oryza sativa); 62 g ai/ha) | Plant response rating, Rice (rice (Oryza sativa); 250 g ai/ha) | Plant response rating, Sedge, Umbrella ([10]; 62 g ai/ha) | Plant response rating, Sedge, Umbrella ([10]; 250 g ai/ha) | Plant response rating, Velvetleaf ([11]; 125 g ai/ha) | Plant response rating, Velvetleaf ([11]; 500 g ai/ha) | Plant response rating, Corn (corn (Zea mays) [12]; 125 g ai/ha) | Plant response rating, Corn (corn (Zea mays) [12]; 500 g ai/ha) | Plant response rating, Wheat ([13]; 125 g ai/ha) | Plant response rating, Wheat ([13]; 500 g ai/ha) | Plant response rating, Morningglory ([14]; 125 g ai/ha) | Plant response rating, Pigweed ([15]; 125 g ai/ha) | Plant response rating, Wheat ([16]; 125 g ai/ha) | Plant response rating, Wheat ([16]; 500 g ai/ha) | Plant response rating, Barnyardgrass ([18]; 62 g ai/ha, scale 0 to 100) | Plant response rating, Barnyardgrass [18, 20] | Plant response rating, Pigweed ([19]; 125 g ai/ha) | Plant response rating, Pigweed ([19]; 500 g ai/ha)
80: Plant response rating, Foxtail, Giant ([8]; 500 g ai/ha)
20: Plant response rating, Barnyardgrass ([9]; 125 g ai/ha)
30: Plant response rating, Crabgrass, Large ([6]; 125 g ai/ha) | Plant response rating, Foxtail, Giant ([8]; 125 g ai/ha)
